Experimental data taken from US20260262643A1, “HERBICIDAL BENZOXAZINES” (FMC CORPORATION, priority 2022, published 2026).

Key:
soybean [1] = test: Test C preemergence; type: in vivo, Glycine max; details: for Plant response rating, Soybean: Preemergence; for Soybean plant response rating: Test C, preemergence, 125 g ai/ha
In short: (§1)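 Seeds in loam–sand blend received preemergence directed soil spray of test chemicals in non-phytotoxic solvent with surfactant; postemergence treatment was applied at one- to two-leaf stage (2–10 cm). After 10 days in greenhouse, injury rated visually versus untreated controls, 0 (no effect) to 100 (complete control).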

kochia [2] = test: Test C postemergence; type: in vivo, Bassia scoparia; details: 10 days
In short: as §1

blackgrass [3] = test: Test C postemergence; type: in vivo, Alopecurus myosuroides; details: 10 days; for Plant response rating, Blackgrass: 0 to 100 scale, 0 no effect, 100 complete control
In short: as §1

barnyardgrass [4] = test: Test C postemergence; type: in vivo, Echinochloa crusgalli; details: 10 days
In short: as §1

corn [5] = test: Test C preemergence; type: in vivo, Zea mays; details: for Plant response rating, Corn: Preemergence; for Corn plant response rating: Test C, preemergence, 125 g ai/ha
In short: as §1

ryegrass, Italian [6] = test: Test C postemergence; type: in vivo, Lolium multiflorum; details: 10 days
In short: as §1

wheat [7] = test: Test C preemergence; type: in vivo, Triticum aestivum; details: for Plant response rating, Wheat: Preemergence; for Wheat plant response rating: Test C, preemergence, 125 g ai/ha
In short: as §1

corn [8] = test: Test C postemergence; type: in vivo, Zea mays; details: 10 days; for Plant response rating, Corn: 0 to 100 scale, 0 no effect, 100 complete control
In short: as §1

kochia [9] = test: Test C preemergence; type: in vivo, Bassia scoparia; details: for Plant response rating, Kochia: Preemergence; for Kochia plant response rating: Test C, preemergence, 125 g ai/ha
In short: as §1

blackgrass [10] = test: Test C preemergence; type: in vivo, Alopecurus myosuroides; details: for Plant response rating, Blackgrass: Preemergence; for Blackgrass plant response rating: Test C, preemergence, 125 g ai/ha
In short: as §1

ragweed [11] = test: Test C preemergence; type: in vivo, Ambrosia artemisiifolia; details: for Plant response rating, Ragweed: Preemergence; for Ragweed plant response rating: Test C, preemergence, 125 g ai/ha
In short: as §1

green foxtail [12] = test: Test C postemergence; type: in vivo, Setaria viridis; details: 10 days
In short: as §1

green foxtail [13] = test: Test C preemergence; type: in vivo, Setaria viridis; details: for Plant response rating, Foxtail, Green: Preemergence; for Foxtail, Green plant response rating: Test C, preemergence, 125 g ai/ha
In short: as §1

oat, wild [14] = test: Test C postemergence; type: in vivo, Avena fatua; details: 10 days
In short: as §1

pigweed, palmer [15] = test: Test C preemergence; type: in vivo, Amaranthus palmeri; details: for Plant response rating, Pigweed, Palmer: Preemergence; for Pigweed, Palmer plant response rating: Test C, preemergence, 125 g ai/ha
In short: as §1

soybean [16] = test: Test C postemergence; type: in vivo, Glycine max; details: 10 days
In short: as §1

wheat [17] = test: Test C postemergence; type: in vivo, Triticum aestivum; details: 10 days
In short: as §1

ragweed [18] = test: Test C postemergence; type: in vivo, Ambrosia artemisiifolia; details: 10 days
In short: as §1

barnyardgrass [19] = test: Test D flooded paddy test; type: in vivo, Echinochloa crus-galli; details: 250 g ai/ha, applied to paddy water, visual rating after 13 to 14 days, scale 0 to 100 (0 no effect, 100 complete control)
In short: (§2)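 Compounds go straight into paddy water over 2-leaf plants in pots flooded to 3 cm. Greenhouse holding lasts 13 to 14 days. Injury is scored by eye against controls from 0 (none) to 100 (complete control).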

horseweed = test: Test C postemergence; type: in vivo, Erigeron canadensis; details: 10 days
In short: as §1

galium = test: Test C postemergence; type: in vivo, Galium aparine; details: 10 days, 0 to 100 scale, 0 no effect, 100 complete control
In short: as §1

barnyardgrass [20] = test: Test C preemergence; type: in vivo, Echinochloa crusgalli; details: for Plant response rating, Barnyardgrass: Preemergence; for Barnyardgrass plant response rating: Test C, preemergence, 125 g ai/ha
In short: as §1

ducksalad = test: Test D flooded paddy test; type: in vivo, Heteranthera limosa; details: 250 g ai/ha, applied to paddy water, visual rating after 13 to 14 days, scale 0 to 100 (0 no effect, 100 complete control)
In short: as §2

sedge, umbrella = test: Test D flooded paddy test; type: in vivo, Cyperus difformis; details: 250 g ai/ha, applied to paddy water, visual rating after 13 to 14 days, scale 0 to 100 (0 no effect, 100 complete control)
In short: as §2

oat, wild [21] = test: Test C preemergence; type: in vivo, Avena fatua; details: for Plant response rating, Oat, Wild: Preemergence; for Oat, Wild plant response rating: Test C, preemergence, 125 g ai/ha
In short: as §1

rice = test: Test D flooded paddy test; type: in vivo, Oryza sativa; details: 250 g ai/ha, applied to paddy water, visual rating after 13 to 14 days, scale 0 to 100 (0 no effect, 100 complete control)
In short: as §2

pigweed, palmer [22] = test: Test C postemergence; type: in vivo, Amaranthus palmeri; details: 10 days
In short: as §1

ryegrass, Italian [23] = test: Test C preemergence; type: in vivo, Lolium multiflorum; details: 0 to 100 scale (0 no effect, 100 complete control)
In short: as §1

[24] = 31 g ai/ha, 0 to 100 scale, 0 no effect, 100 complete control
[25] = 0 to 100 scale (0 no effect, 100 complete control)
[26] = 125 g ai/ha, postemergence, 0 to 100 scale, 0 no effect, 100 complete control
[27] = Postemergence, 31 g ai/ha, 0 to 100 scale, 0 no effect, 100 complete control
[28] = 500 g ai/ha, visual rating after 10 days, 0 to 100 scale (0 no effect, 100 complete control)
[29] = Postemergence, 500 g ai/ha, visual 0 to 100 scale (0 no effect, 100 complete control)

CCC(O)(CC)c1ncn(-c2ccc(C)c(C(=O)N3C[C@H](C)Oc4c(Cl)cccc43)c2)n1 [Compound 180]
Plant response rating, Soybean (soybean [1]; [24]): 0 | Soybean plant response rating (soybean [1]; [25]): 50 | Plant response rating, Kochia (kochia [2]; [26]): 50 | Plant response rating, Kochia (kochia [2]; [27]): 30 | Plant response rating, Blackgrass (blackgrass [3]; 125 g ai/ha, postemergence): 10 | Plant response rating, Blackgrass (blackgrass [3]; Postemergence, 31 g ai/ha): 0 | Plant response rating, Barnyardgrass (barnyardgrass [4]; [26]): 20 | Plant response rating, Barnyardgrass (barnyardgrass [4]; [27]): 10 | Plant response rating, Corn (corn [5]; [24]): 0 | Corn plant response rating (corn [5]; [25]): 0 | Plant response rating, Ryegrass, Italian (ryegrass, Italian [6]; [26]): 50 | Plant response rating, Ryegrass, Italian (ryegrass, Italian [6]; [27]): 0 | Plant response rating, Wheat (wheat [7]; [24]): 0 | Wheat plant response rating (wheat [7]; [25]): 0 | Plant response rating, Corn (corn [8]; 125 g ai/ha, postemergence): 10 | Plant response rating, Corn (corn [8]; Postemergence, 31 g ai/ha): 0 | Plant response rating, Kochia (kochia [9]; [24]): 0 | Kochia plant response rating (kochia [9]; [25]): 0 | Plant response rating, Blackgrass (blackgrass [10]; [24]): 0 | Blackgrass plant response rating (blackgrass [10]; [25]): 20 | Plant response rating, Ragweed (ragweed [11]; [24]): 0 | Ragweed plant response rating (ragweed [11]; [25]): 20 | Plant response rating, Foxtail, Green (green foxtail [12]; [26]): 20 | Plant response rating, Foxtail, Green (green foxtail [12]; [27]): 10 | Plant response rating, Foxtail, Green (green foxtail [13]; [24]): 30 | Foxtail, Green plant response rating (green foxtail [13]; [25]): 70 | Plant response rating, Oat, Wild (oat, wild [14]; [26]): 70 | Plant response rating, Oat, Wild (oat, wild [14]; [27]): 0 | Plant response rating, Pigweed, Palmer (pigweed, palmer [15]; [24]): 0 | Pigweed, Palmer plant response rating (pigweed, palmer [15]; [25]): 60 | Plant response rating, Soybean (soybean [16]; [26]): 100 | Plant response rating, Soybean (soybean [16]; [27]): 90 | Plant response rating, Wheat (wheat [17]; [26]): 20 | Plant response rating, Wheat (wheat [17]; [27]): 10 | Plant response rating, Ragweed (ragweed [18]; [26]): 60 | Plant response rating, Ragweed (ragweed [18]; [27]): 40 | Plant response rating, Barnyardgrass (Flood) (barnyardgrass [19]): 0 | Plant response rating, Horseweed (horseweed; [26]): 0 | Plant response rating, Horseweed (horseweed; [27]): 0 | Plant response rating, Galium (galium; 125 g ai/ha, postemergence): 90 | Plant response rating, Galium (galium; Postemergence, 31 g ai/ha): 70 | Plant response rating, Barnyardgrass (barnyardgrass [20]; [24]): 0 | Barnyardgrass plant response rating (barnyardgrass [20]; [25]): 60 | Plant response rating, Ducksalad (Flood) (ducksalad): 65 | Plant response rating, Sedge, Umbrella (Flood) (sedge, umbrella): 40 | Plant response rating, Oat, Wild (oat, wild [21]; [24]): 0 | Oat, Wild plant response rating (oat, wild [21]; [25]): 50 | Plant response rating, Rice (Flood) (rice): 0 | Plant response rating, Pigweed, Palmer (pigweed, palmer [22]; [26]): 70 | Plant response rating, Pigweed, Palmer (pigweed, palmer [22]; [27]): 30

COc1cc(-n2cnc(C(C)C)n2)cc(C(=O)N2C[C@H](C)Oc3c(Cl)cccc32)c1OC [Compound 194, [(2S)-8-chloro-2-methyl-2,3-dihydro-1,4-benzoxazin-4-yl]-[5-(3-isopropyl-1,2,4-triazol-1-yl)-2,3-dimethoxy-phenyl]methanone]
Plant response rating, Soybean (soybean [1]; [28]): 10 | Soybean plant response rating (soybean [1]; [25]): 10 | Plant response rating, Kochia (kochia [2]; [26]): 10 | Plant response rating, Kochia (kochia [2]; [29]): 80 | pest or weed control at 125 g/ha (blackgrass [3]; Alopecurus myosuroides, post-emergence, 240 h, 125 g ai/ha, postemergence, 0 to 100 scale (0 no effect, 100 complete control), read-out: Plant response rating, Blackgrass): 0% | pest or weed control at 500 g/ha (blackgrass [3]; Alopecurus myosuroides, post-emergence, 240 h, Postemergence, 500 g ai/ha, visual 0 to 100 scale (0 no effect, 100 complete control), read-out: Plant response rating, Blackgrass): 30% | Plant response rating, Barnyardgrass (barnyardgrass [4]; [26]): 10 | Plant response rating, Barnyardgrass (barnyardgrass [4]; [29]): 30 | Plant response rating, Corn (corn [5]; [28]): 30 | Corn plant response rating (corn [5]; [25]): 0 | Plant response rating, Ryegrass, Italian (ryegrass, Italian [6]; [26]): 30 | Plant response rating, Ryegrass, Italian (ryegrass, Italian [6]; [29]): 70 | Plant response rating, Wheat (wheat [7]; [28]): 50 | Wheat plant response rating (wheat [7]; [25]): 0 | Corn plant response rating (crop injury, 0 = no effect, 100 = complete kill) at 125 g/ha (corn [8]; Zea mays, post-emergence, 240 h, 125 g ai/ha, postemergence, 0 to 100 scale (0 no effect, 100 complete control)): 10% | Corn plant response rating (crop injury, 0 = no effect, 100 = complete kill) at 500 g/ha (corn [8]; Zea mays, post-emergence, 240 h, Postemergence, 500 g ai/ha, visual 0 to 100 scale (0 no effect, 100 complete control)): 20% | Plant response rating, Kochia (kochia [9]; [28]): 0 | Kochia plant response rating (kochia [9]; [25]): 0 | Plant response rating, Blackgrass (blackgrass [10]; [28]): 80 | Blackgrass plant response rating (blackgrass [10]; [25]): 20 | Plant response rating, Ragweed (ragweed [11]; [28]): 20 | Ragweed plant response rating (ragweed [11]; [25]): 20 | Plant response rating, Foxtail, Green (green foxtail [12]; [26]): 10 | Plant response rating, Foxtail, Green (green foxtail [12]; [29]): 50 | Plant response rating, Foxtail, Green (green foxtail [13]; [28]): 100 | Foxtail, Green plant response rating (green foxtail [13]; [25]): 70 | Plant response rating, Oat, Wild (oat, wild [14]; [26]): 0 | Plant response rating, Oat, Wild (oat, wild [14]; [29]): 20 | Plant response rating, Pigweed, Palmer (pigweed, palmer [15]; [28]): 30 | Pigweed, Palmer plant response rating (pigweed, palmer [15]; [25]): 20 | Plant response rating, Soybean (soybean [16]; [26]): 90 | Plant response rating, Soybean (soybean [16]; [29]): 90 | Plant response rating, Wheat (wheat [17]; [26]): 20 | Plant response rating, Wheat (wheat [17]; [29]): 20 | Plant response rating, Ragweed (ragweed [18]; [26]): 0 | Plant response rating, Ragweed (ragweed [18]; [29]): 50 | Plant response rating, Barnyardgrass (Flood) (barnyardgrass [19]): 0 | Plant response rating, Horseweed (horseweed; [26]): 0 | Plant response rating, Horseweed (horseweed; [29]): 0 | Plant response rating, Barnyardgrass (barnyardgrass [20]; [28]): 70 | Barnyardgrass plant response rating (barnyardgrass [20]; [25]): 10 | Plant response rating, Ducksalad (Flood) (ducksalad): 0 | Plant response rating, Ryegrass, Italian (ryegrass, Italian [23]; Preemergence, 500 g ai/ha, visual rating after 10 days): 90 | Ryegrass, Italian plant response rating (ryegrass, Italian [23]; Test C, preemergence, 125 g ai/ha): 70 | Plant response rating, Sedge, Umbrella (Flood) (sedge, umbrella): 0 | Plant response rating, Oat, Wild (oat, wild [21]; [28]): 90 | Oat, Wild plant response rating (oat, wild [21]; [25]): 20 | Plant response rating, Rice (Flood) (rice): 0 | Plant response rating, Pigweed, Palmer (pigweed, palmer [22]; [26]): 0 | Plant response rating, Pigweed, Palmer (pigweed, palmer [22]; [29]): 20
